Reference: US20210177814A1, “USE OF GUANABENZ OR DERIVATES THEREOF FOR THE TREATMENT OF TYPE I IFN-DEPENDENT PATHOLOGIES” (INSERM (Institut National de la Santé et de la Recherche …, priority 2018, published 2021)

Assays:
[1] = system: RIG-I like receptor (RLR) dsRNA sensing pathway; test: IRF3 activation and IFN-β expression in MEFs lipofected with poly(I:C); assay type: cell-based, mouse; conditions: WT and Gadd34-deficient
Method: FIG. 2: Interferon β (IFNb) production in response to cytosolic dsRNA (Poly I:C) in WT and Gadd34-deficient embryonic fibroblasts (MEFs) treated with Guanabenz.
(A) IFNb expression in response to lipofected dsRNA (poly I:C) was measured by qPCR (mRNA) or (B) by ELISA (secreted protein) after treatment with Guanabenz (GBZ). (C) Activation of the transcription IRF3 by phosphorylation that drives IFN-β mRNA expression was monitored by western blot in WT and Gadd34-deficient animals (ΔC/ΔC, KO or −/−) in response to lipofected poly I:C in presence of GBZ. (D) eIF2α A/A mutants MEFs (unable to phosphorylate eIF2α on Serine 52, that is targeted by GADD34 and to inhibit protein synthesis) were also tested for IFN-β production and IRF3 activation.

[2] = biological target: T1, TLR9 (Homo sapiens, UniProt Q9NR96); test: Cytokine secretion by human primary blood pDCs activated with CpG ODN 2216 or lupus patient serum; assay type: cell-based; parameters: endogenous in cells; host or cells: human primary blood pDCs; conditions: 3 μM CpG ODN 2216 or 2% lupus serum, GBZ 50 μM
T1 sequence (Q9NR96 26-1032): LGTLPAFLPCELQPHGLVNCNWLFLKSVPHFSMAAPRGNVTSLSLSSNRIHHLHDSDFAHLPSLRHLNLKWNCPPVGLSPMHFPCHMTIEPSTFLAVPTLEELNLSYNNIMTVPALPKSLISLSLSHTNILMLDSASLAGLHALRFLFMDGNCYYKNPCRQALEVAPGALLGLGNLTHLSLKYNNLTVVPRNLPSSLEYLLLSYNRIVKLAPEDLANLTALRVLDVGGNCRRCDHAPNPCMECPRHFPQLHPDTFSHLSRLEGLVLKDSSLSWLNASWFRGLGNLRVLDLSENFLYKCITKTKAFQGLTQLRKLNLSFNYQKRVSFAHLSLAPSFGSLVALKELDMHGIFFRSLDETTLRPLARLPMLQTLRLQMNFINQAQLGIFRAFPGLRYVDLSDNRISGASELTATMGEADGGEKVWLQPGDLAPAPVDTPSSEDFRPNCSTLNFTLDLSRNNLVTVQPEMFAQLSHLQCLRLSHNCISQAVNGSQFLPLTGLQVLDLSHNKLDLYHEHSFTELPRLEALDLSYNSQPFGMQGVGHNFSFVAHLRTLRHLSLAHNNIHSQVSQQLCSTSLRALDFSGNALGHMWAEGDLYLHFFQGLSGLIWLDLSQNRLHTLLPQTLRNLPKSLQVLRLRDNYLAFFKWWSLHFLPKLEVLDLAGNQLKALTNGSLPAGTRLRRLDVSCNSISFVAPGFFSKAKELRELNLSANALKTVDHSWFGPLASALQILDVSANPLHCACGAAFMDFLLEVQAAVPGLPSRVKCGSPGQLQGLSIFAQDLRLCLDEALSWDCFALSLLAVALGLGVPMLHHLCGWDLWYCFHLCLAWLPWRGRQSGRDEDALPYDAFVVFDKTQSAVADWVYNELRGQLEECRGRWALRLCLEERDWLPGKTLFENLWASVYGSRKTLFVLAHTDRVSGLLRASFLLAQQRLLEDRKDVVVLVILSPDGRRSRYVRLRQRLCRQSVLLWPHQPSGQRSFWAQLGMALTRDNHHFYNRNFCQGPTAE
Method: FIG. 1: Guanabenz inhibits TLR3 and TLR9 activation in mouse Flt3-L DCs and human blood pDCs. A) Sorted bone marrow derived Flt3L-DCs were activated for 6 h with 10 μg/mL poly I:C LMW (TLR3 in DC1) or 1 μM ODN 1585 (TLR9 in pDCs). GBZ was added at 50 μM and inhibited IFN-β and Interleukin-6 (IL-6) production in activated cells. B) hTLR4, hTLR3, hTLR9 and hTLR7 expressed in the reporter HEK-Blue™ cells are inhibited by GBZ. TLR-expressing HEK-Blue™ cells were respectively activated with 100 ng/mL LPS, 10 μg/mL poly I:C LMW, 2.5 μM ODN 2006 or 5 μg/mL imiquimod, respectively. GBZ was added at 50 μM. TLR activity was measured indirectly through SEAP activity as absorbance at 405 nm. […] Protein concentration of IFN-α and TNF-α secreted were measured at the indicated time points or at 16 h. […]
Mouse IFN-β quantification in culture supernatant was performed using the Mouse Interferon Beta ELISA kit (PBL InterferonSource); mouse IL-6, TNFα, IL-10, human TNFα and human IFNα were quantified using ELISA kit (eBioscience) respectively, according to manufacturer instructions.
Given the efficiency of GBZ on mouse TLR3 and TLR9, we turned to human TLRs, in order to extend the relevance of our observations. GBZ-mediated inhibition was first evaluated on NF-kB signaling by monitoring secreted alkaline phosphatase (SEAP) reporter levels in HEK-293 cells expressing TLR3, TLR4, TLR7, TLR9 (FIG. 1B). […]

Q: With `NC(N)=N/N=C/c1c(Cl)cccc1Cl` [GBZ, 2-(2,6-dichlorobenzylidene)-hydrazinecarboximidamide] as the compound, how does the “IFN-β expression (mRNA by qPCR, secreted protein by ELISA)” value [1] read?
A: inhibited

Q: What about the “activation of IRF3 (phosphorylation, western blot)” value [1] of the same compound?
A: inhibited

Q: What about the “IFN-β expression (mRNA by qPCR, secreted protein by ELISA)” value ([1]; listed as Guanabenz) of the same compound?
A: inhibit

Q: What about the “activation of IRF3 (phosphorylation, western blot)” value ([1]; listed as Guanabenz) of the same compound?
A: inhibit

Q: And the “production of TNF-α” value [2]?
A: prevented

Q: What about the “production of type-I IFN (IFN-α)” value [2] of the same compound?
A: prevented
